# Read-outs that look alike come from different tables or passages of the source.
# Experiments:
# [1] = tested on: Aβ40 in conditioned medium of cells stably expressing Amyloid Precursor Protein (APP); assay: In vitro BACE cell-based assay (Aβ40 in conditioned medium, sandwich ELISA); details: Homo sapiens;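 also: compounds added as a dilution series, secreted peptide quantified by europium time-resolved fluorescence readout, potency fitted from percent of control versus compound concentration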
# [2] = Microsomal stability assay, rat liver microsomes;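 also: rat liver microsomes (0.25 mg/mL) with about 1 µM compound plus 1 mM NADPH, pH 7.4, 37 °C for 30 min, parent left measured by LC-MS/MS against 0 min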
# [3] = target: Beta Secretase enzyme (BACE) (Homo sapiens, UniProt P56817); assay: In vitro enzymatic BACE FRET (fluorescence resonance energy transfer) assay; type: biochemical;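 also: fluorescence read after 1 h with 50 nM quenched peptide substrate spanning the BACE cleavage site, in pH 4.2 acetate buffer containing 10% DMSO and nonionic detergent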
# Beta Secretase enzyme (BACE), sequence (P56817 46-501): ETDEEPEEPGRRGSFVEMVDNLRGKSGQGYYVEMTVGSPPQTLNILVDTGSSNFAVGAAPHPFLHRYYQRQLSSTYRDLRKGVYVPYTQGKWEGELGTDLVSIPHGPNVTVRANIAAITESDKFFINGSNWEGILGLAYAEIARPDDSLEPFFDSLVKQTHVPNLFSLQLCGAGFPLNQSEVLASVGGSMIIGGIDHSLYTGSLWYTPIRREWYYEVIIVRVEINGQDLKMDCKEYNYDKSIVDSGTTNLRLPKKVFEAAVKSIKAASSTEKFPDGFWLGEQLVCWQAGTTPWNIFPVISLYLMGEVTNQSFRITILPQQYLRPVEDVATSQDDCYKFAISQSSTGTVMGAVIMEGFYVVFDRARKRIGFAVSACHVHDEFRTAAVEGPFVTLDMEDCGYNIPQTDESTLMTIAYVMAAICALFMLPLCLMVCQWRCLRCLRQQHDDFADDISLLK
# [4] = tested on: Abeta peptide; assay: In vivo inhibition of beta-secretase (reduction of Abeta peptide in brain and cerebrospinal fluid); set-up: species or system rat; details: Rattus norvegicus, po, 4 h;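 also: abeta peptide quantified by sandwich ELISA with electrochemiluminescence readout in rat brain supernatant or CSF, relative to vehicle-dosed control animals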
# [5] = Microsomal stability assay, human liver microsomes;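 also: pooled human liver microsomes at 0.25 mg/mL with 1 µM compound and NADPH at 37 °C, pH 7.4, for 30 min, unchanged parent quantified by LC-MS/MS against the 0 min sample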
# [6] = target: CYP3A4 (CYP3A) (Homo sapiens, UniProt P08684); assay: in vitro; details: microsomes, pH 7.4;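 also: inhibition of CYP3A-mediated 1-hydroxymidazolam formation after 10 min incubation with NADPH, quantified by HPLC MS relative to metabolite produced without test compound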
# CYP3A4 (CYP3A), sequence (P08684 2-503): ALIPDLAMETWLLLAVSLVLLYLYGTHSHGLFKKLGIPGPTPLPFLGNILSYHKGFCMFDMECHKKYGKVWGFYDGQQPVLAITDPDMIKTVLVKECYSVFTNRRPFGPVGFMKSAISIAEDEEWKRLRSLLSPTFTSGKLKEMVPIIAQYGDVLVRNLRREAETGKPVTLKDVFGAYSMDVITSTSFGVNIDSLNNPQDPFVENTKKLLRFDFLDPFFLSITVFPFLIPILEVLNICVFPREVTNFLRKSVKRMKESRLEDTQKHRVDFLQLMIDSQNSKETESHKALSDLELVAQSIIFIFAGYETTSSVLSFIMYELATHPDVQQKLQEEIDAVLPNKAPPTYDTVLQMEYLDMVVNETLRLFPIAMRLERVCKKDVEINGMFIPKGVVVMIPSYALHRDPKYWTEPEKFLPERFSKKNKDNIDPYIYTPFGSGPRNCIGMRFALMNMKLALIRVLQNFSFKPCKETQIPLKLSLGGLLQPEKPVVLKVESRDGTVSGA
# [7] = target: CYP2D6 (Homo sapiens, UniProt P10635); assay: CYP2D6 inhibition assay (bufuralol, pooled human liver microsomes)
# CYP2D6, sequence (P10635 whole entry): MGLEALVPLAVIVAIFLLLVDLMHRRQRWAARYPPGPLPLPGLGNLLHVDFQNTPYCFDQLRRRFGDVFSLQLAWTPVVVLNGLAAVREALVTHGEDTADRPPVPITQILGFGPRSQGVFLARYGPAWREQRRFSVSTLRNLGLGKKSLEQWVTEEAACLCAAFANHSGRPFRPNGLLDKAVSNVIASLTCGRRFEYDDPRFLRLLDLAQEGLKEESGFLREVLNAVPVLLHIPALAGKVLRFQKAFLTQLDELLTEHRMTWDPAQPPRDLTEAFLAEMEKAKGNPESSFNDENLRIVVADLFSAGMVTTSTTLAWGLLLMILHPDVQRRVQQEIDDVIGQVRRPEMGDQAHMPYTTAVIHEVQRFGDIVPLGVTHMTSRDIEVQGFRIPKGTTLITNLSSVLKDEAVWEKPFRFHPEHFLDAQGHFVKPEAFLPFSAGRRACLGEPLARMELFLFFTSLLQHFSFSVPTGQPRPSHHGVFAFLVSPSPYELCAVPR
# [8] = HEK293, HEK cells, read-out: HEK cell assay
# [9] = BACE enzyme assay, read-out: BACE1 FRET assay
# [10] = rat cerebrospinal fluid, orally administered at 30 mg/kg dose, measured after 4 hours, read-out: percent reduction of abeta peptide in the cerebrospinal fluid of the rat
# [11] = 2D6 IC50 (uM), CYP enzyme inhibition
# [12] = HEK293, cell-based assay, HEK cells, IC50's in uM, read-out: HEK cell assay
# [13] = BACE enzyme assay, IC50's in uM, read-out: BACE1 FRET assay
# [14] = 2D6 IC50, CYP enzyme inhibition
# [15] = HEK293, HEK cells, read-out: HEK cell assay (IC50)
# [16] = read-out: BACE1 FRET assay (IC50)
# [17] = rat brain, orally administered at 30 mg/kg dose, measured after 4 hours, read-out: percent reduction of abeta peptide in the brain of the rat
# [18] = HEK293, HEK cell-based assay, IC50's in uM, read-out: HEK cell assay
# [19] = HEK293, HEK cell-based assay IC50, read-out: HEK cell assay
# [20] = BACE enzyme assay IC50, read-out: BACE1 FRET assay
# [21] = 2D6 IC50 (uM), CYP2D6 inhibition
SMILES,RLM ([2]; rat liver microsomal data),"inhibition in vivo at 30 mg/kg [4, 10]",HLM ([5]; human liver microsomal data),IC50 [6],"IC50 [1, 12]","IC50 [3, 13]",RLM ([2]; rat liver microsomes),HLM ([5]; human liver microsomes),further results
COCC(=O)N[C@@H](Cc1cccc(F)c1)[C@H](O)CN[C@H]1CC2(CCC2)Oc2c(-c3ccncc3)cc(CC(C)(C)C)cc21 [Example 535],79 µL/min/mg,10 to 80%,49 µL/min/mg,100 nM,–,–,–,–,"IC50 [1, 8]: 0.006 µM; IC50 [3, 9]: 0.009 µM; IC50 [7, 11]: 2.5 µM"
"C#Cc1cccc(C[C@H](NC(=O)COCC)[C@H](O)CN[C@H]2CC3(CCC3)Oc3ncc(CC(C)(C)C)cc32)c1 [Example 870, N-((1S,2R)-3-(((4′S)-6′-(2,2-dimethylpropyl)-3′,4′-dihydrospiro[cyclobutane-1,2′-pyrano[2,3-b]pyridin]-4′-yl)amino)-1-(3-ethynylbenzyl)-2-hydroxypropyl)-2-ethoxyacetamide]",–,≥ 50%,–,–,0.011 µM,0.004 µM,–,–,"IC50 [7, 14]: 1.6 µM"
CO[C@H](C)C(=O)N[C@@H](Cc1ccc2c(c1)OCO2)[C@H](O)CN[C@H]1CC2(CCC2)Oc2ncc([C@@H]3CC3(C)C)cc21 [Example 578],–,–,–,100 nM,–,–,185 µL/min/mg,36 µL/min/mg,"IC50 [1, 15]: 0.019 µM; IC50 [3, 16]: 0.018 µM; inhibition in vivo at 30 mg/kg [4, 17]: 5 to 80%; IC50 ([7]; 2D6 IC50, CYP2D6 inhibition): 2 µM"
C#Cc1cccc(C[C@H](NC(=O)CC)[C@H](O)CN[C@H]2CC3(CCC3)Oc3ncc(CC(C)(C)C)cc32)c1 [Example 873],29 µL/min/mg,≥ 50%,35 µL/min/mg,–,0.007 µM,0.003 µM,–,–,"IC50 [7, 14]: 0.8 µM"
"COC(OC)C(=O)N[C@@H](Cc1cccc(-c2nccs2)c1)[C@H](O)CN[C@H]1CC2(CCC2)Oc2ncc(CC(C)C)cc21 [Example 816, N-((1S,2R)-2-hydroxy-3-(((4′S)-6′-(2-methylpropyl)-3′,4′-dihydrospiro[cyclobutane-1,2′-pyrano[2,3-b]pyridin]-4′-yl)amino)-1-(3-(1,3-thiazol-2-yl)benzyl)propyl)-2,2-dimethoxyacetamide]",44 µL/min/mg,10 to 80%,46 µL/min/mg,300 nM,–,0.008 µM,–,–,"IC50 [1, 18]: 0.024 µM; inhibition in vivo at 30 mg/kg [4, 17]: 5 to 80%; IC50 [7, 11]: 0.7 µM"
COCC(=O)N[C@@H](Cc1ccc(-c2nccs2)c(F)c1)[C@H](O)CN[C@H]1CC2(CCC2)Oc2ncc(CC(C)(C)C)cc21 [Example 730],–,10 to 80%,–,≤ 30 nM,–,–,74 µL/min/mg,57 µL/min/mg,"IC50 [1, 19]: 0.027 µM; IC50 [3, 20]: 0.039 µM; IC50 [7, 21]: 0.7 µM"
"CC(C)(C)Cc1cnc2c(c1)[C@@H](NC[C@@H](O)[C@H](Cc1ccc3c(c1)OCO3)NC(=O)[C@H]1CCO1)CC1(CCC1)O2 [Example 516, (2R)-N-((1S,2R)-1-(1,3-benzodioxol-5-ylmethyl)-3-(((4′S)-6′-(2,2-dimethylpropyl)-3′,4′-dihydrospiro[cyclobutane-1,2′-pyrano[2,3-b]pyridin]-4′-yl)amino)-2-hydroxypropyl)-2-oxetanecarboxamide]",94 µL/min/mg,10 to 80%,31 µL/min/mg,100 nM,–,–,–,–,"IC50 [1, 8]: 0.02 µM; IC50 [3, 9]: 0.018 µM; IC50 [7, 11]: 3.3 µM"
CO[C@H](C)C(=O)N[C@@H](Cc1cccc(F)c1)[C@H](O)CN[C@H]1CC2(CCC2)Oc2c1cc(CC(C)C)cc2-n1ccnc1 [Example 521],142 µL/min/mg,10 to 80%,27 µL/min/mg,100 nM,–,–,–,–,"IC50 [1, 8]: 0.015 µM; IC50 [3, 9]: 0.019 µM; IC50 [7, 11]: 1.9 µM"
COCC(=O)N[C@@H](Cc1cc(-c2nccs2)ccc1F)[C@H](O)CN[C@H]1CC2(CCC2)Oc2ncc(CC(C)(C)C)cc21 [Example 900],–,10 to 80%,–,≥ 27000 nM,–,–,–,–,"IC50 [7, 14]: ≥ 27 µM"
CO[C@H](C)C(=O)N[C@@H](Cc1cc(F)cc(F)c1)[C@H](O)CN[C@H]1CC2(CCC2)Oc2c1cc(CC(C)C)nc2-c1ccncc1 [Example 687],–,10 to 80%,–,≤ 30 nM,–,–,91 µL/min/mg,27 µL/min/mg,"IC50 [1, 19]: 0.016 µM; IC50 [3, 20]: 0.008 µM; IC50 [7, 21]: 0.2 µM"
CC(=O)N[C@@H](Cc1ccc(-c2nccs2)cc1)[C@H](O)CN[C@H]1CC2(CCC2)Oc2ncc(CC(C)(C)C)cc21 [Example 677],–,10 to 80%,–,100 nM,–,–,52 µL/min/mg,57 µL/min/mg,"IC50 [1, 19]: 0.028 µM; IC50 [3, 20]: 0.015 µM; inhibition in vivo at 30 mg/kg [4, 17]: 5 to 80%; IC50 [7, 21]: 1 µM"
"COCC(=O)N[C@@H](Cc1ccc(F)c(-c2nccs2)c1)[C@H](O)CN[C@H]1CC2(CCC2)Oc2ncc(CC(C)(C)C)cc21 [Example 650, N-((1S,2R)-3-(((4′S)-6′-(2,2-dimethylpropyl)-3′,4′-dihydrospiro[cyclobutane-1,2′-pyrano[2,3-b]pyridin]-4′-yl)amino)-1-(4-fluoro-3-(1,3-thiazol-2-yl)benzyl)-2-hydroxypropyl)-2-methoxyacetamide]",–,–,–,–,–,–,–,–,"inhibition in vivo at 30 mg/kg [4, 17]: 5 to 80%"
C#Cc1cc(C[C@H](NC(=O)C(OC)OC)[C@H](O)CN[C@H]2CC3(CCC3)Oc3ncc(CC(C)(C)C)cc32)ccc1F [Example 861],64 µL/min/mg,≥ 50%,28 µL/min/mg,–,0.018 µM,0.008 µM,–,–,"IC50 [7, 14]: 2.1 µM"
CC(C)Cc1cnc2c(c1)[C@@H](NC[C@@H](O)[C@H](Cc1ccc3c(c1)OCO3)NC(=O)[C@@H](C)F)CC1(CCC1)O2 [Example 600],–,10 to 80%,–,–,–,–,–,–,"IC50 [1, 15]: 0.035 µM; IC50 [3, 16]: 0.03 µM; inhibition in vivo at 30 mg/kg [4, 17]: 5 to 80%"
CC(C)C(=O)N[C@@H](Cc1cc(F)cc(-c2nccs2)c1)[C@H](O)CN[C@H]1CC2(CCC2)Oc2ncc(CC(C)(C)C)cc21 [Example 883],52 µL/min/mg,10 to 80%,54 µL/min/mg,100 nM,0.021 µM,0.021 µM,–,–,–
COCC(=O)N[C@@H](Cc1cc(F)cc(F)c1)[C@H](O)CN[C@H]1CC2(CCC2)Oc2c1cc(CC(C)(C)C)nc2-c1cncn1C [Example 597],–,10 to 80%,–,–,–,–,35 µL/min/mg,22 µL/min/mg,"IC50 [1, 15]: 0.011 µM; IC50 [3, 16]: 0.034 µM; IC50 ([7]; 2D6 IC50, CYP2D6 inhibition): 2.8 µM"
CO[C@H](C)C(=O)N[C@@H](Cc1cccc(C#N)c1)[C@H](O)CN[C@H]1CC2(CCC2)Oc2c(-c3ccncc3)cc(CC(C)(C)C)cc21 [Example 638],–,10 to 80%,–,–,–,–,92 µL/min/mg,32 µL/min/mg,"IC50 [1, 15]: 0.006 µM; IC50 [3, 16]: 0.017 µM; IC50 ([7]; 2D6 IC50, CYP2D6 inhibition): 3 µM"
C#Cc1cccc(C[C@H](NC(=O)COC)[C@H](O)CN[C@H]2CC3(CCC3)Oc3ncc(CC(C)C)cc32)c1 [Example 756],49 µL/min/mg,10 to 80%,53 µL/min/mg,–,–,0.005 µM,–,–,"IC50 [1, 18]: 0.009 µM; IC50 [7, 11]: 1.4 µM"
C#Cc1cc(F)cc(C[C@H](NC(=O)[C@@H](C)OC)[C@H](O)CN[C@H]2CC3(CCC3)Oc3ncc(CC(C)C)cc32)c1 [Example 835],109 µL/min/mg,–,48 µL/min/mg,–,–,0.006 µM,–,–,"IC50 [1, 18]: 0.026 µM; inhibition in vivo at 30 mg/kg [4, 17]: 5 to 80%; IC50 [7, 11]: 2.1 µM"
CC(C)(C)Cc1cnc2c(c1)[C@@H](NC[C@@H](O)[C@H](Cc1cc(F)cc(-c3nccs3)c1)NC(=O)CF)CC1(CCC1)O2 [Example 878],65 µL/min/mg,–,72 µL/min/mg,200 nM,0.022 µM,0.004 µM,–,–,inhibition in vivo at 30 mg/kg ([4]; read-out: percent reduction of abeta peptide in the brain of the rat): 5 to 80%
CC(C)(C)Cc1cnc2c(c1)[C@@H](NC[C@@H](O)[C@H](Cc1ccc(F)cc1)NC(=O)COC(F)F)CC1(CCC1)O2 [compound 647],–,–,–,400 nM,–,–,269 µL/min/mg,303 µL/min/mg,"IC50 [1, 15]: 0.039 µM; IC50 [3, 16]: 0.008 µM; IC50 ([7]; 2D6 IC50, CYP2D6 inhibition): 2.7 µM"
CC(C)(C)Cc1cnc2c(c1)[C@@H](NC[C@@H](O)[C@H](Cc1cc(F)cc(-c3nccs3)c1)NC(=O)[C@H]1CCCO1)CC1(CCC1)O2 [compound 877],64 µL/min/mg,–,46 µL/min/mg,200 nM,0.012 µM,0.005 µM,–,–,"IC50 [7, 14]: 0.7 µM"
CO[C@H](C)C(=O)N[C@@H](Cc1cc(-c2nccs2)ccc1F)[C@H](O)CN[C@H]1CC2(CCC2)Oc2ncc(CC(C)(C)C)cc21 [compound 898],121 µL/min/mg,–,67 µL/min/mg,100 nM,0.014 µM,0.01 µM,–,–,"IC50 [7, 14]: 1 µM"

# Reference: US8163909B2, “Substituted hydroxyethyl amine compounds as beta-secretase modulators and methods of use” (Amgen Inc., priority 2007, dated 2012)
